# Measured values published in patent US7863297B2, “Methods of using 4-(amino)-2-(2,6-dioxo(3-piperidly))-isoindoline-3-dione for the treatment of myelodysplastic syndromes” (Celgene Corporation, priority 2002, dated 2011).
# Like-named read-outs stand apart in the source and are kept apart here.
# Key:
# MDS patients [1] = conditions: MDS patients treated with recombinant human EPO; cited from earlier work
# TNF-α production [2] = conditions: LPS-stimulated PBMC, cited from earlier work; for IC50: read-out: IC50 for inhibiting production of TNF-α
# AML cells = assay: Mitogenic response to VEGF in AML cells; assay type: cell-based; conditions: by extinguishing ligand-induced Akt-phosphorylation
# [3] = test system: bone marrow progenitor formation; assay: MDS vs normal bone marrow progenitor formation in pre-clinical models; assay type: cell-based
# [4] = test system: production of various cytokines; assay: In vitro studies of effects on production of various cytokines, potency compared with thalidomide; assay type: cell-based; conditions: in vitro cytokine production studies
# Text: The results of these studies are described below.
# MDS patients [5] = assay: Clinical study in MDS patients with RBC transfusion-dependence or symptomatic anemia
# MDS patients [6] = assay: Expanded clinical study with additional 16 MDS patients; assay type: in vivo, human
# Text: The clinical study was expanded with additional 16 MDS patients for at least eight weeks. According to the IPSS, 13 of these patients were categorized as low- or intermediate-1-risk patients and three patients were grouped as intermediate-2- or high-risk patients. According to the FAB classification, there were 11 patients with refractory anemia (RA) or RA with ringed sideroblasts (RARS), and five patients with RA with excess blasts (RAEB), RAEB in transformation (RAEB-T). […] Among these 16 patients who completed at least 8 weeks of monitoring, nine patients achieved an erythroid response as assessed by the International MDS Working Group Criteria. The erythroid responses consisted of transfusion independence in seven previously transfusion-dependent patients, a >2 g/dL rise in blood hemoglobin concentration in one patient in with transfusion-independent anemia, and a >50% decrease in RBC transfusion requirement in one transfusion-dependent patient. […] In addition, complete cytogenetic responses developed in five in eight patients with abnormal karyotypes at baseline. These five patients with complete cytogenetic responses all had the Del5q31-33 abnormality, which has been discovered to be a good prognostic factor for MDS. Indeed, all five patients who enrolled in this study with 5q-syndrome achieved a complete cytogenetic response and a major erythroid response.
# TNF-α production [7] = conditions: LPS-stimulated human whole blood, cited from earlier work
# [8] = 25 mg daily, initial ten patients
# [9] = hematologic responses, nine evaluable
molecule,measurement,setting,value
"recombinant human EPO: recombinant human erythropoietin (EPO), a hematopoietic growth factor",patients with sustained improvement in hemoglobin or decrease in transfusion requirement,MDS patients [1],less than 25%
"O=C1CCC(N2C(=O)c3ccccc3C2=O)C(=O)N1 (racemic) [Thalidomide, 2-(2,6-dioxo-3-piperidinyl)-1H-isoindole-1,3(2H)-dione, reference compound]",IC50 for inhibiting production of TNF-α,TNF-α production [2],~50.2 µg/mL
same,IC50,TNF-α production [2],~194000 nM
Nc1cccc2c1CN(C1CCC(=O)NC1=O)C2=O (stereo not shown),mitogenic response to VEGF,AML cells,abrogates mitogenic response to VEGF in AML cells
same,MDS vs normal bone marrow progenitor formation,[3],selectively suppresses MDS vs normal bone marrow progenitor formation
same,"potency relative to thalidomide, in all studies",[4],at least 50 times
same,IC50 for inhibiting production of TNF-α,TNF-α production [2],~0.0259 µg/mL
same,IC50,TNF-α production [2],~100 nM
same,tolerability,MDS patients [5]; 10 mg continuous oral daily dose,well-tolerated with minimal myelosuppression
same,grade 3 fatigue necessitating dose reduction,MDS patients [5]; [8],1 patient
same,myelosuppression (higher than grade 3 common toxicity criteria or 50% decrease in leukocyte and platelet counts) necessitating dose reduction,MDS patients [5]; [8],9 patients
same,patients with IPSS Low/Int-1 who experienced hematologic benefit,MDS patients [5]; 6/7 patients with IPSS Low/Int-1,86%
same,complete or partial cytogenetic remission (decrease in abnormal metaphases of more than 50%),MDS patients [5]; among five patients evaluable for cytogenetic response,three
same,normalization of blast percentage,MDS patients [5]; among responders,1 patient
same,patients who discontinued therapy prematurely (<2 weeks),"MDS patients [5]; due to cholecystitis, autoimmune hemolytic anemia, or patient refusal, of 15 patients",three
same,RBC transfusion-independence,MDS patients [5]; [9],4 patients
same,decrease in RBC transfusions of more than 50%,MDS patients [5]; [9],1 patient
same,increase in Hgb of more than 1.5 g,MDS patients [5]; [9],1 patient
same,"Grade 1,2 drug-related myalgia",MDS patients [5]; limited to the 25 mg dose,1 patient
same,"Grade 1,2 drug-related pruritus or itchy scalp",MDS patients [5]; limited to the 25 mg dose,6 patients
same,"minor platelet response (increase of more than 30,000/μL)",MDS patients [5]; number of responses,one
same,evaluable patients who experienced hematologic benefit,"MDS patients [5]; of nine evaluable patients, oral 25 mg daily reduced to 10 mg, IWG criteria",66%
same,overall clinical activity,MDS patients [5]; patients with low/intermediate-1 risk MDS,remarkable erythropoietic and cytogenetic remitting activity
same,patients with 5q-syndrome who achieved a complete cytogenetic response and a major erythroid response,MDS patients [6]; all enrolled patients with 5q-syndrome,five
same,need for dose reduction by completion of eight weeks therapy,MDS patients [6]; all patients with starting dose of 25 mg,required dose reduction
same,patients who achieved an erythroid response (International MDS Working Group Criteria),"MDS patients [6]; among 16 patients with at least 8 weeks of monitoring, start 25 mg or 10 mg daily",nine
same,apoptotic index for myelodysplastic progenitors,MDS patients [6]; association with therapy,increased apoptotic index
same,normal hematopoietic progenitor cells,MDS patients [6]; association with therapy,recovery of normal hematopoietic progenitor cells
same,transfusion independence in previously transfusion-dependent patients,MDS patients [6]; erythroid responses,seven
same,minor platelet response,"MDS patients [6]; human, in vivo",One
same,complete cytogenetic responses,MDS patients [6]; in eight patients with abnormal karyotypes at baseline,five
same,major erythroid response,MDS patients [6]; of 16 patients,eight
same,minor erythroid response,MDS patients [6]; of 16 patients,one
same,>50% decrease in RBC transfusion requirement,MDS patients [6]; transfusion-dependent patient,one
same,>2 g/dL rise in blood hemoglobin concentration,MDS patients [6]; transfusion-independent anemia,one
same,IC50 for inhibiting production of TNF-α,TNF-α production [7],~0.1036 µg/mL
same,IC50,TNF-α production [7]; read-out: IC50 for inhibiting production of TNF-α,~480 nM
